In PubChem BioAssay (NCI):
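1) Cells in 96-well plates. 2) Compound, 48 h, 5 concentrations. 3) Linear interpolation between surrounding doses. 4) Unreached endpoint = highest concentration. TGI is the concentration that stops growth completely.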

How the values were obtained:
Assay in all cases: NCI-60 cell line screen, 48 h
A549 NSCLC = test system: A549 NSCLC
KM12 colon = test system: KM12 colon
ACHN renal = test system: ACHN renal
SK-MEL-2 melanoma = test system: SK-MEL-2 melanoma
K-562 leukemia = test system: K-562 leukemia
SK-MEL-28 melanoma = test system: SK-MEL-28 melanoma
NCI-H460 lung = test system: NCI-H460 lung
DU-145 prostate = test system: DU-145 prostate
HS 578T breast = test system: HS 578T breast
MDA-N = test system: MDA-N

N#CC(NC12CC3CC(CC(C3)C1)C2)c1ccccc1C(F)(F)F (stereo not drawn)
TGI (A549 NSCLC): > 100 µM
TGI (KM12 colon): > 100 µM
TGI (ACHN renal): > 100 µM
TGI (SK-MEL-2 melanoma): > 100 µM
TGI (K-562 leukemia): > 100 µM
TGI (SK-MEL-28 melanoma): > 100 µM
TGI (NCI-H460 lung): > 100 µM

Cc1ccc(SCC(CF)OC(C)n2cnc3c(=O)[nH]c(N)nc32)cc1 (stereo not drawn)
TGI (A549 NSCLC): > 100 µM
TGI (KM12 colon): > 100 µM
TGI (ACHN renal): > 100 µM
TGI (SK-MEL-2 melanoma): > 100 µM
TGI (DU-145 prostate): > 100 µM
TGI (SK-MEL-28 melanoma): > 100 µM
TGI (HS 578T breast): > 100 µM
TGI (MDA-N): > 100 µM
TGI (NCI-H460 lung): > 100 µM

O=P(Nc1ccc(Cl)cc1)(Oc1ccccc1)N(CCCl)CCCl (stereo not drawn)
TGI (A549 NSCLC): > 100 µM
TGI (KM12 colon): > 100 µM
TGI (ACHN renal): > 100 µM
TGI (SK-MEL-2 melanoma): > 100 µM
TGI (K-562 leukemia): > 100 µM
TGI (SK-MEL-28 melanoma): > 100 µM

Cc1ccc2c(c1)C(C(=O)N[C@@H]1C(=O)N3[C@@H]1SC(C)(C)[C@@H]3C(=O)O)OCCC2 (stereo partly drawn)
TGI (A549 NSCLC): > 100 µM
TGI (KM12 colon): > 100 µM
TGI (ACHN renal): > 100 µM
TGI (SK-MEL-2 melanoma): > 100 µM
TGI (K-562 leukemia): > 100 µM
TGI (DU-145 prostate): > 100 µM
TGI (SK-MEL-28 melanoma): > 100 µM
TGI (HS 578T breast): > 100 µM
TGI (NCI-H460 lung): > 100 µM

CCN(CC)CCNc1nc2ccc([N+](=O)[O-])cc2[n+]([O-])n1
TGI (A549 NSCLC): 61 µM
TGI (KM12 colon): > 100 µM
TGI (ACHN renal): > 100 µM
TGI (SK-MEL-2 melanoma): 35.3 µM
TGI (K-562 leukemia): 54.3 µM
TGI (DU-145 prostate): > 100 µM
TGI (SK-MEL-28 melanoma): > 100 µM
TGI (MDA-N): 29.5 µM
TGI (NCI-H460 lung): 56.8 µM

O=c1[nH]nc(-c2ccccc2)c2[nH]c3c4ccccc4ccc3c12
TGI (A549 NSCLC): > 100 µM
TGI (KM12 colon): > 100 µM
TGI (ACHN renal): > 100 µM
TGI (SK-MEL-2 melanoma): > 100 µM
TGI (K-562 leukemia): > 100 µM
TGI (MDA-N): 0.545 µM
TGI (NCI-H460 lung): > 100 µM

COc1cc(/C=C2/C[C@H]3[C@@H]4CC=C5C[C@@H](O)CC[C@]5(C)[C@H]4CC[C@]3(C)NC2=O)cc(OC)c1OC
TGI (A549 NSCLC): > 100 µM
TGI (KM12 colon): > 100 µM
TGI (ACHN renal): 58 µM
TGI (SK-MEL-2 melanoma): > 62.9 µM
TGI (K-562 leukemia): > 100 µM
TGI (DU-145 prostate): 23.4 µM
TGI (SK-MEL-28 melanoma): > 100 µM
TGI (MDA-N): > 100 µM
TGI (NCI-H460 lung): 25.9 µM

C[C@]12CCC(=O)O[C@H]1CCCCO2
TGI (A549 NSCLC): > 100 µM
TGI (KM12 colon): > 100 µM
TGI (SK-MEL-2 melanoma): > 100 µM
TGI (K-562 leukemia): > 100 µM
TGI (DU-145 prostate): > 100 µM
TGI (SK-MEL-28 melanoma): > 100 µM
TGI (HS 578T breast): > 100 µM
TGI (MDA-N): > 100 µM
TGI (NCI-H460 lung): > 100 µM

Cc1c(S(=O)(=O)/N=C(\NO)Nc2ccc(Cl)c(Cl)c2)sc2ccc(Cl)cc12
TGI (A549 NSCLC): 68.8 µM
TGI (KM12 colon): 38.6 µM
TGI (ACHN renal): 25.8 µM
TGI (SK-MEL-2 melanoma): 38.6 µM
TGI (K-562 leukemia): 71.4 µM
TGI (DU-145 prostate): 37.1 µM
TGI (SK-MEL-28 melanoma): 42.5 µM
TGI (HS 578T breast): 80.9 µM
TGI (MDA-N): 34.8 µM

O=C1C(CN2CCCCC2)CCC1CN1CCCCC1 (stereo not drawn)
TGI (A549 NSCLC): > 100 µM
TGI (KM12 colon): > 69.7 µM
TGI (ACHN renal): 47.5 µM
TGI (SK-MEL-2 melanoma): 52.6 µM
TGI (DU-145 prostate): > 100 µM
TGI (SK-MEL-28 melanoma): 41.2 µM
TGI (HS 578T breast): > 73.2 µM
TGI (MDA-N): 22.2 µM
TGI (NCI-H460 lung): > 100 µM

O=C1CCC(c2ccc(Cl)cc2)=NN1c1nsc2ccccc12
TGI (A549 NSCLC): > 100 µM
TGI (KM12 colon): > 100 µM
TGI (ACHN renal): > 100 µM
TGI (SK-MEL-2 melanoma): 38.7 µM
TGI (K-562 leukemia): 68 µM
TGI (SK-MEL-28 melanoma): > 100 µM
TGI (NCI-H460 lung): > 100 µM

OCC(O)COCn1nncc1Cn1ncc2c(SCc3ccccc3)ncnc21 (stereo not drawn)
TGI (A549 NSCLC): > 100 µM
TGI (KM12 colon): > 100 µM
TGI (ACHN renal): > 100 µM
TGI (SK-MEL-2 melanoma): > 100 µM
TGI (DU-145 prostate): > 100 µM
TGI (SK-MEL-28 melanoma): > 100 µM
TGI (HS 578T breast): 25.7 µM
TGI (MDA-N): > 100 µM
